Reference: patent US8058242B2, “Chimeric proteins with natriuretic activity” (The University of Queensland, priority 2004, dated 2011)

How the values were obtained:
[1] = test system: endothelium-intact aortic rings (NPR-C mediated); assay: Aortic ring relaxation, endothelium-intact rings pre-contracted with 40 mM KCl (Example 3); parameters: species or system rat; settings: endothelium-intact rat aortas pre-contracted with 40 mM KCl; peptide 0.1 μM
Procedure: (§1) Male Sprague Dawley rats were killed and the descending thoracic aorta rapidly removed and flushed with physiological solution. After being cleared of adhering fat and connective tissue, 5 mm rings were mounted under 10 g resting tension, between two stainless steel hooks, in organ baths (37° C.) containing carbogenated (95% O2 and 5% CO2) physiological salt solution of the following composition (mM): NaCl, 118.4; NaHCO3, 25; glucose, 11; KCl, 4.7; MgSO4, 1.2; KH2PO4, 1.2 and CaCl2, 2.5. The lower hook was attached to a tissue holder and the upper hook to a force displacement transducer (Grass FTO3). Where indicated endothelial cells were removed by gentle rubbing of the intimal surface with a wire. To confirm the presence or absence of endothelial cells, tissues were precontracted with a sub-maximal concentration of phenylephrine (0.3 μM) and the response to acetylcholine (ACh, 10 μM) observed. Ach-induced relaxation greater than 80% of maximum indicated the presence of endothelium; whereas Ach-induced relaxation less than 10% indicated the absence of endothelium. Ring preparations under resting tension were conditioned by two contraction/relaxation cycles with 40 mM KCl, contracted by a third application of 40 mM KCl and then relaxed with different doses of the venom peptides. Responses were expressed as a percentage relaxation of the precontraction by KCl.

Plasmin = molecular target: T1, Plasmin (Homo sapiens, UniProt P00747); assay: Stability to enzymatic degradation by plasmin (Examples 7, 16); type: in vitro ADME; settings: plasmin, 37° C.
T1 construct: with 500 ng Endopeptidase (NEP) or 10 μg Plasmin
In short: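 Peptide (100 μl of 500 μM) was incubated at 37 °C in 100 mM Tris/HCl, 150 mM NaCl, pH 7.2-7.4 with 500 ng NEP or 10 μg plasmin. Samples were taken from 5 min to 24 h and heat-quenched at 100 °C for 4 min. Remaining peptide was measured by RP-HPLC.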

[2] = test system: endothelium-denuded aortic rings (GC-A mediated); assay: Aortic ring relaxation, endothelium-denuded rings pre-contracted with 40 mM KCl (Example 3); parameters: species or system rat; settings: endothelium-denuded rat aortas pre-contracted with 40 mM KCl; peptide 0.1 μM
Procedure: as §1

conscious rabbits = assay: Blood pressure and heart rate in conscious rabbits, intravenous infusion dose-response (Example 8); parameters: Systolic BP, mean difference / Diastolic BP, mean difference / Mean BP, mean difference / HR, mean difference: dose or concentration left out as unconfirmed; settings: for Diastolic BP, mean difference from control / HR, mean difference from control / Mean BP, mean difference from control / Systolic BP, mean difference from control: 45 min
[3] = molecular target: T2, Natriuretic Peptide Receptor-A (NPR-A) signaling in MDCK cells (Canis lupus familiaris, UniProt A0A8I3MHU3); type: cell-based, canine; settings: stimulation of cGMP accumulation in MDCK cells
T2 sequence (A0A8I3MHU3 32-1060): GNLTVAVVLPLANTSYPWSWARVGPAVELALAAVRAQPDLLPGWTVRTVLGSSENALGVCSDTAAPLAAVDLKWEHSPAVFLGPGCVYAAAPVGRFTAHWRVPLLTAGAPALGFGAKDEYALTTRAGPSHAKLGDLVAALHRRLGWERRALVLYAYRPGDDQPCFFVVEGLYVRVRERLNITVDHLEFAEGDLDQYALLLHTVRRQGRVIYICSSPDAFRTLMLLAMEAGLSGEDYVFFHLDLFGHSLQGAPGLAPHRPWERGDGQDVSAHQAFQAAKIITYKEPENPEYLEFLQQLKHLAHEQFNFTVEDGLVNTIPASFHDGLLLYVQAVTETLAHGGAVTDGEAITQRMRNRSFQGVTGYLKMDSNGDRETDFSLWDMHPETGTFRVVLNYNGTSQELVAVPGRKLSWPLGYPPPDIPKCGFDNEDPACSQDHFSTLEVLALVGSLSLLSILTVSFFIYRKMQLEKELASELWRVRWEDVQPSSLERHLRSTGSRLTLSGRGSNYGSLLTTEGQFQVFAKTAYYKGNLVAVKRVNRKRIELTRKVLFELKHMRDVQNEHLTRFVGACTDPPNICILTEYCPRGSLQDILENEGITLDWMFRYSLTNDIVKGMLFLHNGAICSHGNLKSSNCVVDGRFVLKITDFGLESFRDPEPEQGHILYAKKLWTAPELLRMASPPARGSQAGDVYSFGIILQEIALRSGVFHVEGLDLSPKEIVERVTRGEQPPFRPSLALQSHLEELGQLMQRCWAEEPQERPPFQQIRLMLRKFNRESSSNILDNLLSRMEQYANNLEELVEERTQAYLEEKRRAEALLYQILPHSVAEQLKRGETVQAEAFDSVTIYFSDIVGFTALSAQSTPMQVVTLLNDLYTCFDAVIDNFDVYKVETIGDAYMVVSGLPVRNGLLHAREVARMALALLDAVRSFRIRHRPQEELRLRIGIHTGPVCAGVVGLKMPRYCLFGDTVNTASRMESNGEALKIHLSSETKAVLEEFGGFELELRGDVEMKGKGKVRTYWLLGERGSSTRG

[4] = Table 9B, average of doses 1, 2, 4
[5] = average of the 3 doses 1.0, 2.0, 4.0 μg/kg/min

T1 sequence (P00747 97-580 partner limits assumed, species assumed): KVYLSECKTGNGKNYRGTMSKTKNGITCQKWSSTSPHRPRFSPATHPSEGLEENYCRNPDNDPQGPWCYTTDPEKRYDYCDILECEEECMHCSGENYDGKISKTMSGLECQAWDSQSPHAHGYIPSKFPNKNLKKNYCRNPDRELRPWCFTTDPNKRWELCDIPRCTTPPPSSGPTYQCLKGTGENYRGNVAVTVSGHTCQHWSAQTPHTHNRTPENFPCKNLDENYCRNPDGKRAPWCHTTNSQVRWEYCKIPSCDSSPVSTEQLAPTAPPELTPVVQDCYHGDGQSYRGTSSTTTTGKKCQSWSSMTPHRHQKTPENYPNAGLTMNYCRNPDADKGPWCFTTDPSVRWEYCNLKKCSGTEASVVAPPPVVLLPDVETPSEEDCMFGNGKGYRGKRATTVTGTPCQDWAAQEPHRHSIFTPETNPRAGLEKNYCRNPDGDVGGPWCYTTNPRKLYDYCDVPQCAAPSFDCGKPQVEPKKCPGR
T1 sequence (P00747 581-810 limits assumed, species assumed): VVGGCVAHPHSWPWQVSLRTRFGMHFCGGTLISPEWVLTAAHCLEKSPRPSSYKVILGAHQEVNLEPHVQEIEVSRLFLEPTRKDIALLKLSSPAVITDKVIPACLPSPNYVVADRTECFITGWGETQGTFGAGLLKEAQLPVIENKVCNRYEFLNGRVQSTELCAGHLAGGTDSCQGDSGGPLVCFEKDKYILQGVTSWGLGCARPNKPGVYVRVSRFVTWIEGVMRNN

In the case of `CC[C@H](C)[C@@H]1NC(=O)[C@H](CCCNC(=N)N)NC(=O)[C@H](CC(=O)O)NC(=O)[C@H](CCSC)NC(=O)[C@H](CCCNC(=N)N)NC(=O)CNC(=O)CNC(=O)[C@H](Cc2ccccc2)NC(=O)[C@@H](NC(=O)[C@H](CO)NC(=O)[C@H](CO)NC(=O)[C@H](CCCNC(=N)N)NC(=O)[C@H](CCCNC(=N)N)NC(=O)[C@H](CC(C)C)NC(=O)[C@@H](N)CO)CSSC[C@@H](C(=O)N[C@@H](CC(N)=O)C(=O)N[C@@H](CO)C(=O)N[C@@H](Cc2ccccc2)C(=O)N[C@@H](CCCNC(=N)N)C(=O)N[C@@H](Cc2ccc(O)cc2)C(=O)O)NC(=O)CNC(=O)[C@H](CC(C)C)NC(=O)CNC(=O)[C@H](CO)NC(=O)[C@H](CCC(N)=O)NC(=O)[C@H](C)NC(=O)CNC1=O` [hANP, reference compound], the “percentage relaxation of the precontraction by KCl” value [1] is reported as ~100%, the half-life at 125 μM (Plasmin; plasmin in Tris/HCl-NaCl buffer, read-out: HalfLife in plasmin) is reported as 2.03 min and the “K (one phase exponential decay, best fit values)” value (Plasmin) is reported as 0.3413. For the same molecule, the “PLATEAU (one phase exponential decay, best fit values)” value (Plasmin) was 0.04207, the “SPAN (one phase exponential decay, best fit values)” value (Plasmin) was 0.9579 and the “percentage relaxation of the precontraction by KCl” value [2] was ~100%. The “Diastolic BP, mean difference” value (conscious rabbits; Table 9B, Dose 1) was −9.7 mmHg, the “HR, mean difference” value (conscious rabbits; Table 9B, Dose 1) was 17 bpm and the “Mean BP, mean difference” value (conscious rabbits; Table 9B, Dose 1) was −13.1 mmHg. For the same molecule, the “Systolic BP, mean difference” value (conscious rabbits; Table 9B, Dose 1) was −10.6 mmHg, the “Diastolic BP, mean difference” value (conscious rabbits; Table 9B, Dose 2) was −12.3 mmHg and the “HR, mean difference” value (conscious rabbits; Table 9B, Dose 2) was 19 bpm. For the same molecule, the “Mean BP, mean difference” value (conscious rabbits; Table 9B, Dose 2) was −15.7 mmHg, the “Systolic BP, mean difference” value (conscious rabbits; Table 9B, Dose 2) was −13.0 mmHg and the “Diastolic BP, mean difference” value (conscious rabbits; Table 9B, Dose 4) was −14.4 mmHg. For the same molecule, the “HR, mean difference” value (conscious rabbits; Table 9B, Dose 4) was 9 bpm, the “Mean BP, mean difference” value (conscious rabbits; Table 9B, Dose 4) was −18.5 mmHg and the “Systolic BP, mean difference” value (conscious rabbits; Table 9B, Dose 4) was −14.5 mmHg. For the same molecule, the “Diastolic BP, Average Response SED” value (conscious rabbits; [4]) was −12.1 ± 0.8 mmHg, the “HR, Average Response SED” value (conscious rabbits; [4]) was 15 ± 3 bpm and the “Systolic BP, Average Response SED” value (conscious rabbits; [4]) was −12.7 ± 0.9 mmHg. For the same molecule, the “Recovery (MAP)” value (conscious rabbits; after 1 hour recovery period, Table 10A) was 59.2 mm Hg, the “Recovery Delta SED (MAP)” value (conscious rabbits; after 1 hour recovery period, Table 10A, listed as WT-hANP) was 5.0±1.2 mm Hg and the “Diastolic BP, Average Response SED” value (conscious rabbits; [5]) was −12.1 ± 0.8 mmHg. For the same molecule, the “HR, Average Response SED” value (conscious rabbits; [5]) was 15.1 ± 3.2 bpm, the “Systolic BP, Average Response SED” value (conscious rabbits; [5]) was −12.7 ± 0.9 mmHg and the “MAP at final dose” value (conscious rabbits; highest dose, Table 10A) was 54.2 mm Hg. The “Treatment Effect, change of mean blood pressure during the infusion” value (conscious rabbits; highest dose, Table 10A, groups 1, 2A and 3) was −18.5 mm Hg, the “Diastolic BP, mean difference from control” value (conscious rabbits; i.v. infusion 1.0 μg/kg/min) was −9.7 mmHg and the “HR, mean difference from control” value (conscious rabbits; i.v. infusion 1.0 μg/kg/min) was 17.1 bpm. The “Mean BP, mean difference from control” value (conscious rabbits; i.v. infusion 1.0 μg/kg/min) was −13.1 mmHg, the “Systolic BP, mean difference from control” value (conscious rabbits; i.v. infusion 1.0 μg/kg/min) was −10.6 mmHg and the “Diastolic BP, mean difference from control” value (conscious rabbits; i.v. infusion 2.0 μg/kg/min) was −12.3 mmHg. For the same molecule, the “HR, mean difference from control” value (conscious rabbits; i.v. infusion 2.0 μg/kg/min) was 19.0 bpm, the “Mean BP, mean difference from control” value (conscious rabbits; i.v. infusion 2.0 μg/kg/min) was −15.7 mmHg and the “Systolic BP, mean difference from control” value (conscious rabbits; i.v. infusion 2.0 μg/kg/min) was −13.0 mmHg. The “Diastolic BP, mean difference from control” value (conscious rabbits; i.v. infusion 4.0 μg/kg/min) was −14.4 mmHg, the “HR, mean difference from control” value (conscious rabbits; i.v. infusion 4.0 μg/kg/min) was 9.0 bpm and the “Mean BP, mean difference from control” value (conscious rabbits; i.v. infusion 4.0 μg/kg/min) was −18.5 mmHg. For the same molecule, the “Systolic BP, mean difference from control” value (conscious rabbits; i.v. infusion 4.0 μg/kg/min) was −14.5 mmHg, the “−Log10 EC50 (pEC50) ± Standard Error” value [3] was 8.792 ± 0.2718 and the EC50 ([3]; read-out: EC50 (M) ± Standard Error) was 1.64e-08 M.
